In patent US12662530B2, “Anti-ADM-antibodies binding to the free N-terminus for accelerated transition of ADM-Gly to bio-ADM in patients with ADM-Gly/ bio-ADM ratio above a threshold and combination with vitamin C” (SphingoTec GmbH, priority 2020, dated 2026):
Read-outs that look alike come from different tables or passages of the source.

Tests used:
native PAM = assay: ADM maturation activity (AMA) of native PAM in Li-Heparin plasma with antibody and varying L-ascorbate; type: biochemical, human; details: FIG. 15
Procedure: A serial antibody-dilution with concentrations of 0, 5, 10, 50, 100, 500 and 3000 μg/mL per well, respectively (in 20 μl) were pipetted into 96-well micro-titer plates. Then 160 μl PAM reaction buffer (100 mM Tris-HCl, 6.25 μM CuSO4, 62.5 μM amastatin, 250 μM leupeptin, 36 ng/mL ADM-Gly) with varying L-ascorbate concentrations was added to the wells and incubated for 15 min. Afterwards the reaction was started by addition of 20 μl of Li-Heparin plasma, containing native PAM Immediately after addition of plasma, 100 μl from each well were removed and inactivated by addition of EDTA (20 mM final concentration) to generate a t=0 minutes reaction point. Inactivated and non-inactivated samples were incubated for 40 minutes at 37° C. and the reaction in non-inactivated samples was stopped as described above. For quantification of produced ADM-NH2 the Sphingotest® bio-ADM Kit (Weber et al. 2017) was utilized according to manufacturer's manual. The ADM maturation activity (AMA) was calculated according to equation 1 (DF=dilution factor of sample matrix).

native human plasma PAM = assay: Formation of bio-ADM by native human PAM in Li-Heparin plasma, with and without exogenous ADM-Gly; type: biochemical; details: without addition of exogenous ADM-Gly; HAM8101 300 μg/mL; 90 minutes
Procedure: In a further experiment we investigated the formation of bio-ADM from ADM-Gly by native human plasma PAM and the influence of N-terminal- and mid-regional anti-adrenomedullin antibodies.
Human Li-Heparin plasma (pool of 3 specimen) was used as source of human native PAM. The amidation reaction was performed in a total volume of 120 μl at 37° C. 96 μl of plasma were spiked with either HAM8101 (375 μg/mL final concentration) or ADM-Gly (5 ng/mL final concentration) or with both. As control, equal volumes of 100 mM Tris-HCl, pH 7.5 were added to untreated plasma. The prepared samples were allowed to chill for 15 minutes at room temperature. The amidation reaction was started by addition of 24 μl of PAM-reaction buffer resulting in final concentrations of 2 mM L-Ascorbate and 5 μM CuSO4, respectively. The final concentrations of HAM8101 and ADM-Gly were 300 μg/mL and 4 ng/mL, respectively. The reaction was allowed to proceed for 90 minutes at 37° C. After 0 min, 30 min, 60 min and 90 min of incubation, the reaction was stopped by addition of 20 mM EDTA (final concentration). The concentration of bio-ADM in the reaction sample was quantified using the Sphingotest® bio-ADM immunoassay as described recently (Weber et al. 2017. JALM 2(2): 222-233).

[1] = system: CLP-induced sepsis in mice; details: pre-treatment, cited from earlier work
MR-proADM/bio-ADM ratio = MR-proADM/bio-ADM ratio in samples of healthy subjects after administration; type: in vivo, human; details: Table 5, n 18
Procedure: (§1) Critically ill subjects were from the AdrenOSS-I cohort described in example 7. Healthy and healthy HAM8101 treated subjects were from the study cohort described in example 6 (Geven et al. 2017. Intensive Care Med Exp 5 (Suppl 2): 0427). Bio-ADM was determined as described by Weber et al., 2017. ADM-Gly was determined as described in example 4.
The same patients as described in example 8 were also analysed for their MR-proADM/ADM-NH2 ratio.

[2] = system: ADM-Gly to bio-ADM conversion; type: in vivo; details: for ADM-Gly/bioADM Ratio: Table 4, n 9
From the text: ADM-Gly was quantified as based on Weber et al. (Weber et al. 2017. JALM 2(2): 222-233) for bioactive ADM with the following modifications: the tracer-antibody used for ADM-Gly detection, labelled with MACN-acridinium-NHS, was directed to the C-terminal glycine of ADM-Gly. The assay was calibrated with synthetic ADM-Gly. […] All determined ADM-Gly concentrations were corrected for cross-reactivity as follows: For each ADM-Gly quantification additional quantification of bio-ADM in corresponding samples was performed using the Sphingotest® bio-ADM immunoassay. The corresponding bio-ADM values were used to determine the signal (RLU) generated with the antibody directed to C-terminal glycine of ADM on a bio-ADM calibration curve. The determined signal (RLU) was used to calculate the false-positive ADM-Gly concentration (pg/mL) using the ADM-Gly calibration curve. This concentration was subtracted from the initially determined ADM-Gly concentration. […]
as §1

[3] = Geven et al. 2017; cited from earlier work
[4] = Single escalating i.v. doses in healthy male subjects (phase I): ADM values and safety; type: in vivo, human
Procedure: The study was described in Geven et al. (Geven et al. 2017. Intensive Care Med Exp 5 (Suppl 2): 0427). Briefly, the study was conducted in healthy male subjects as a randomized, double-blind, placebo-controlled, study with single escalating doses of NT-H antibody (HAM8101) administered as intravenous (i.v.) infusion in 3 sequential groups of 8 healthy male subjects each (1st group 0.5 mg/kg, 2nd group 2 mg/kg, 3rd group 8 mg/kg) of healthy male subjects (n=6 active, n=2 placebo for each group). The main inclusion criteria were written informed consent, age 18-35 years, agreement to use a reliable way of contraception and a BMI between 18 and 30 kg/m^2. Subjects received a single i.v. dose of NT-H antibody (HAM8101) (0.5 mg/kg; 2 mg/kg; 8 mg/kg) or placebo by slow infusion over a 1-hour period in a research unit.

HAM8101: humanized N-terminal anti-ADM antibody, heavy chain SEQ ID No. 35, light chain SEQ ID No. 36
increase of the bio-ADM formation of PAM (native PAM; 100 μg/mL of HAM8101 in the amidation assay, Li-Heparin plasma): 40%
effect on the amidation for each ascorbate concentration assayed (native PAM; HAM8101 0-3000 μg/mL): concentration dependent positive effect on the amidation
change in bio-ADM concentration (native human plasma PAM): No change in bio-ADM concentration
7-day survival ([1]; repeated dose administration, control 0%): 40%
7-day survival ([1]; single dose administration, control 10%): 50%
MR-proADM/bio-ADM ratio (MR-proADM/bio-ADM ratio; Healthy HAM8101 treated (1 h)): 44.6
MR-proADM/bio-ADM ratio (MR-proADM/bio-ADM ratio; Healthy HAM8101 treated (4 h)): 42.4
ADM-Gly/bioADM Ratio ([2]; Healthy HAM8101 treated (1 h)): 0.61
ADM-Gly/bioADM Ratio ([2]; Healthy HAM8101 treated (4 h)): 0.33
ratio of ADM-Gly/bio-ADM ([2]; group 1 (0.5 mg/kg), after 1 h, FIG. 12): approximately 0.75
ratio of ADM-Gly/bio-ADM ([2]; group 1 (0.5 mg/kg), after 24 hours): No further change
ratio of ADM-Gly/bio-ADM ([2]; group 1 (0.5 mg/kg), four hours after administration): approximately 0.38
ratio of ADM-Gly/bio-ADM ([2]; group 2 (2 mg/kg), after 1 h): ~0.63
ratio of ADM-Gly/bio-ADM ([2]; group 2 (2 mg/kg), after 24 hours): No further change
ratio of ADM-Gly/bio-ADM ([2]; group 2 (2 mg/kg), four hours after administration): ~0.25
ratio of ADM-Gly/bio-ADM ([2]; group 3 (8 mg/kg), after 1 h): ~0.43
ratio of ADM-Gly/bio-ADM ([2]; group 3 (8 mg/kg), after 24 hours): approximately 0.5
ratio of ADM-Gly/bio-ADM ([2]; group 3 (8 mg/kg), four hours after administration): approximately 0.38
safety and tolerability, phase I study [3]: no serious adverse events were observed
time within which ADM-values rapidly increased after administration ([4]; healthy human individuals, 0.5, 2, 8 mg/kg i.v., FIG. 10): ≤ 1.5 h
safety: heart rate, mean arterial pressure, peripheral oxygen saturation, temperature ([4]; healthy male subjects, single i.v. dose 0.5, 2, 8 mg/kg): did not influence heart rate, mean arterial pressure, peripheral oxygen saturation or temperature
routine haematological and biochemical safety laboratory measurements ([4]; healthy male subjects, single i.v. dose 0.5, 2, 8 mg/kg versus placebo): no significant differences between groups
